Results published in article PMC9926234, “Iterative computational design and crystallographic screening identifies potent inhibitors targeting the Nsp3 macrodomain of SARS-CoV-2” (Proceedings of the National Academy of Sciences of the …, 2023).

The compounds below were run against SARS-CoV-2 NSP3 Mac1 (Severe acute respiratory syndrome coronavirus 2, UniProt P0DTD1). Settings: DSF dose responsiveness, 1 µM nsp3 mac1; adj p given.
Type: binding
Set-up: contains a conserved macrodomain enzyme (Mac1)
Procedure: DSF and associated compound handling was performed as described ([12]), with 5 µM dye “Fluorescent Yellow” (Jacquard iDye Cat #JID1405) used in place of SYPRO Orange. Compounds were tested in triplicate, at seven concentrations in two-fold serial dilutions, at a top concentration of either 1,000 or 100 μM. To minimize experimental noise arising from plate location-based effects on Tma, all concentrations and replicates for each compound were tested within a single region of the microtiter plates, including a DMSO-only control from which ΔTmas were calculated for that compound. […] For each compound, to determine statistical significance of the dose responsive thermal shift, the Spearman’s coefficient was calculated between compound concentration and ΔTma.

| Structure (SMILES) | Spearman est (compound concentration vs apparent Tm) |
| --- | --- |
| CN(Cc1nnc2c(=O)[nH]ccn12)c1nccc(C(F)(F)F)n1 [ZINC000882897665] | 0.38 |
| O=C1CC2(CC2)C(CSc2n[nH]c(-c3ccccn3)n2)O1 (centres unmarked) [FRESH00010267028] | 0.52 |
| Cn1cnc(C(=O)NCC2CCN2C(=O)c2ncnc3[nH]ccc23)c1 (centres unmarked) [ZINC000949397098] | 0.3 |
| Nc1nc(N)c2ncn(Cc3csc(Cl)n3)c2n1 [Z4718398572] | 0.89 |
| Clc1cc2c(N3CCCC(c4nnc[nH]4)C3)ncnc2[nH]1 (centres unmarked) [ZINC001187497156] | 0.32 |
| Cc1ccccc1CC(C)c1nc(-c2cc(N)ncn2)no1 (centres unmarked) [ZINC000896334066] | 0.77 |
| CC(c1ccc(Cl)c(Cl)c1)S(=O)(=O)Cc1cn[nH]c1 (centres unmarked) [ZINC000905245728] | −0.2 |
| O=C(NC(C(=O)O)c1c[nH]c2ccccc12)c1ncnc2[nH]ccc12 (centres unmarked) [Z4661819162] | −0.51 |
| CCc1noc(C(C)OC(=O)c2cccc3[nH]c(=O)oc23)n1 (centres unmarked) [ZINC000751938095] | −0.41 |
| COc1ccc(-c2nnc(NC(=O)Cc3ncccc3F)s2)cc1 [ZINC000350686468] | 0.17 |
| Cc1cc(C(=O)C(C#N)c2nnc3n2CCCCC3)cc(O)n1 (centres unmarked) [ZINC000183202483] | −0.33 |
| Cc1nc(Cc2noc(Cc3ccc4[nH]ncc4c3)n2)no1 [ZINC000345855262] | −0.06 |
| O=C(Cc1ccc2c(c1)CCO2)OCc1cc2ccccc2[nH]c1=O [ZINC000733430132] | −0.12 |
| Clc1cc2c(N3CCCC(c4cccnc4)C3)ncnc2[nH]1 (centres unmarked) [ZINC000866018680] | 0.2 |
| Cc1ccc(CC(=O)OCc2noc(C3CC3)n2)cc1O [ZINC000772152995] | 0.02 |
| CNc1ccc(C(=O)N2CC(C(=O)O)CC2(C)C)cn1 (centres unmarked) [REAL250001652488] | 0.12 |
| CC1c2ccc(F)cc2CCN1C(=O)c1cccc(O)c1 (centres unmarked) [ZINC000679635167] | −0.95 |
| O=C(Nc1cccnc1)Nc1nc2ccccc2c(=O)[nH]1 [Z4718398593] | −0.56 |
| Cc1oc(-c2cccs2)nc1Cc1nc(-c2cncnc2N)no1 [ZINC000350813789] | 0.74 |
| c1ccc(-c2n[nH]c(Cc3noc([C@@H]4CCCO4)n3)n2)cc1 [ZINC000273900063] | −0.02 |
| CC(C(=O)N1CCCC1c1nc(C(N)=O)no1)c1cccc(F)c1 (centres unmarked) [ZINC000373034135] | 0.29 |
| O=c1[nH]ccn2c(CSc3nc4ccccc4s3)nnc12 [ZINC001458791015] | 0.66 |
| O=C(O)CC1Cc2ccccc2N1C(=O)c1ccc(NC(=O)NC2CC2)cc1 (centres unmarked) [8539_0039] | 0.09 |
| CNc1cc(N2CCCC(c3nc(C)no3)C2)ncn1 (centres unmarked) [ZINC000891943247] | 0.24 |
| CNc1cc(-c2noc(CN3CCCC3=O)n2)ncn1 [ZINC000904236028] | −0.56 |
| Nc1ncnc(SCCc2cccc(Cl)c2Cl)n1 [ZINC001641481086] | 0.6 |
| Nc1ncc(S(=O)(=O)N2CCC2c2cccc(F)c2)cn1 (centres unmarked) [ZINC001365141527] | −0.66 |
| N#Cc1cccc(-n2ccc(C(=O)OCc3cccnc3)n2)c1 [ZINC000798346395] | 0.61 |
| O=C(Cc1ccc(-n2cccn2)cc1)OCC1CCCNC1=O (centres unmarked) [ZINC000835985505] | −0.14 |
| CN(Cc1cccc(O)c1)C(=O)Cc1ccncc1 [ZINC000542791186] | 0.23 |

Same assay, conditions: maximal thermal upshift

| Structure (SMILES) | DSF max dTma |
| --- | --- |
| O=C1CC2(CC2)C(CSc2n[nH]c(-c3ccccn3)n2)O1 (centres unmarked) [FRESH00010267028] | 0.32 ˚C |
| Cn1cnc(C(=O)NCC2CCN2C(=O)c2ncnc3[nH]ccc23)c1 (centres unmarked) [ZINC000949397098] | 0.1 ˚C |
| CCc1noc(C(C)OC(=O)c2cccc3[nH]c(=O)oc23)n1 (centres unmarked) [ZINC000751938095] | 0.13 ˚C |
| Cc1cc(C(=O)C(C#N)c2nnc3n2CCCCC3)cc(O)n1 (centres unmarked) [ZINC000183202483] | 0 ˚C |
| CNc1ccc(C(=O)N2CC(C(=O)O)CC2(C)C)cn1 (centres unmarked) [REAL250001652488] | 0.21 ˚C |
| c1ccc(-c2n[nH]c(Cc3noc([C@@H]4CCCO4)n3)n2)cc1 [ZINC000273900063] | 0.03 ˚C |
| O=C(O)CC1Cc2ccccc2N1C(=O)c1ccc(NC(=O)NC2CC2)cc1 (centres unmarked) [8539_0039] | 2.09 ˚C |
| CNc1cc(N2CCCC(c3nc(C)no3)C2)ncn1 (centres unmarked) [ZINC000891943247] | 0.27 ˚C |
| Nc1ncc(S(=O)(=O)N2CCC2c2cccc(F)c2)cn1 (centres unmarked) [ZINC001365141527] | 0 ˚C |

Same assay, conditions: maximal thermal upshift vs DMSO control

| Structure (SMILES) | DSF max dTma [°C] |
| --- | --- |
| COc1ccc(-c2nnc(NC(=O)Cc3ncccc3F)s2)cc1 [Z6468] | 0.58 |
| CS(=O)(=O)C1CCCCN(c2ncnc3[nH]c4ccccc4c23)C1 (centres unmarked) [Z8648] | 0.24 |
| N#Cc1cccc(-n2ccc(C(=O)OCc3cccnc3)n2)c1 [Z6395] | 0.18 |
| CN(Cc1nnc2c(=O)[nH]ccn12)c1cc(Cl)nc(C2CC2)n1 [Z7766] | 0.14 |
| CN(Cc1cccc(O)c1)C(=O)Cc1ccncc1 [Z1186] | 0.19 |
| Cc1nc(Cc2noc(Cc3ccc4[nH]ncc4c3)n2)no1 [Z5262] | 0.45 |
| Fc1ccc(F)c(Sc2ncnc3[nH]ccc23)c1 [Z5289] | 1.24 |
| CN(C(=O)CN1CCNC(=O)C1)c1ccc(-c2nccs2)cc1 [Z3700] | 0 |
| O=c1[nH]nc(C2CCCN(c3ncnc4[nH]c(Cl)cc34)C2)o1 (centres unmarked) [Z8387] | 1.01 |
| COc1ccc(Cl)cc1Cn1cnc2c(N)ncnc21 [Z0953] | 0.27 |
| O=C(COC(=O)c1ccc2nsnc2c1)c1ccccc1 [Z2380] | 0.47 |
| Cc1csc(=Nc2ccccc2)n1Cc1nnc2n1CCNC2=O [Z5356] | 0.51 |
| Cc1nc(S(=O)(=O)NCc2ccc(-c3ccncc3)cc2)cn1C [Z7041] | 0.35 |
| O=C(Nc1nc2ccccc2c(=O)[nH]1)c1cccnc1 [Z3628] | 0.49 |
| Nc1ncnc2c1ncn2CCCc1ccsc1 [Z5972] | 0.51 |
| Cc1cc(C)nc(CSc2nnc3c(=O)[nH]c4ccccc4n23)c1 [Z7570] | 0.36 |
| CC(C)c1noc(CCc2nc(-c3ccnc4[nH]ccc34)no2)n1 [Z1347] | 0 |
| Cc1cc(CSc2nnc3c(=O)[nH]c4ccccc4n23)no1 [Z1628] | 0.68 |
| Cc1cnc(COC(=O)C(C)(C)c2ccc(O)cc2)o1 [Z0329] | 0.06 |
| CNc1cc(-c2noc(CN3CCCC3=O)n2)ncn1 [Z6028] | 0.33 |
| CC1CN(C(=O)CCc2nc(-c3ccncc3)no2)C1c1ccccc1 (centres unmarked) [Z0856] | 0.6 |
| CS(=O)(=O)C1CCCN(c2ncnc3[nH]c(Cl)cc23)C1 (centres unmarked) [Z9550] | 0.64 |
| c1ccc2c(c1)N(c1ncnc3[nH]ccc13)CC21CC1 [Z9310] | 0 |
